Data on two compounds can be found in patent US7064124B2, “NF-κB inhibitor containing substituted benzoic acid derivative as active ingredient” (Daiichi Suntory Pharma Co., Ltd., priority 2001, dated 2006).

By IC50 is commonly meant the concentration that gives 50% inhibition. By melting point is commonly meant the temperature, or range, at which the solid turns liquid.

Data set [1] concerns GalN/LPS-stimulated C3H/HeN female mice. Nature of the data set: Sepsis model (GalN/LPS), compound given orally. Format: in vivo, mouse. The note with it: oral 10, 30 or 100 mg/kg 10 min before GalN/LPS, vs vehicle group; for TNF-α mRNA levels in liver: liver 60 min after stimulant, real-time PCR; for TNF-α levels in plasma: plasma 90 min after stimulant, ELISA. The procedure: Similarly to Experiment 2, a mixed solution of GalN (20 mg) and LPS (2 μg) was intraperitoneally administered as a stimulant to a 7-week-old C3H/HeN female mice. Ten minutes before that, the compound of Example 112 or the compound of Example 157 each suspended in a vehicle (0.5% HPC) was orally administered to give a dose of 10 mg/kg, 30 mg/kg or 100 mg/kg. The TNF-α mRNA levels in liver 60 minutes after the administration of stimulant were measured by the real-time PCR method, and the TNF-α levels in plasma after 90 minutes were measured using the mouse TNF-α ELISA kit. The comparison with the vehicle group was performed by the Dunnett's Multiple Comparison test using Stat-View.

The test system is the same in data set [2]. As to the kind of experiment: In vivo sepsis model (GalN/LPS), compound given intraperitoneally. Further details: species or system mouse. Particulars: i.p. 10, 30 or 100 mg/kg immediately after GalN/LPS, vs vehicle group. The procedure: A mixed solution of N-acetyl galactosamine (GalN, 20 mg, Sigma) and lipopolysaccharide (LPS, 5 μg, Sigma) was intraperitoneally administered as a stimulant to a 7-week-old C3H/HeN female mice and immediately thereafter, the compound of Example 112 suspended in a vehicle (0.5% hydroxypropyl cellulose (HPC), produced by Nippon Soda Co., Ltd.) was intraperitoneally administered to give a dose of 10 mg/kg, 30 mg/kg or 100 mg/kg. The TNF-α mRNA levels and the IL-1β mRNA levels in liver 60 minutes after the administration of stimulant each was measured by the real-time PCR method, and the TNF-α levels in plasma after 90 minutes were measured using the mouse TNF-α ELISA kit (Biosource). In the real-time PCR using PRISM7700 (PE Biosystems Japan) according to the protocol of PCR quantitative System (PE Biosystems Japan), mRNA was extracted from the liver and the TNF-α and IL-1β were detected with cDNA obtained by SuperScript Preamplification System (Lifetech Orient) as a template. For the detection, the following primers and TaqMan probes were used.
The RNA level in each sample was corrected by the expression level of glyceraldehyde 3-phosphate dehydrogenase (GAPDH) gene.
ELISA was performed according to the manual included in the kit. The comparison with the vehicle group was performed by the Dunnett's Multiple Comparison test using Stat-View (SAS Institute).

The test system of data set [3] is carrageenin-induced foot edema in Wister male rat. As to the kind of experiment: Acute inflammation model: carrageenin foot edema, compound given orally. Format: in vivo. Particulars: oral 100 mg/kg immediately after carrageenin; foot volume 2 hours after carrageenin; vs vehicle group. The procedure: The foot edma ratio was calculated according to the formula: (volume of foot after administration of carrageenin−volume of foot before administration)/volume of foot before administration×100, and shown by the average of foot edma ratio +/−SE.
On the footpad of the right hind leg of a 5-week-old Wister male rat, 0.1 ml of 1 w/v % λ-carrageenin (Sigma) was subcutaneously administered. Immediately thereafter, the compound of Example 112 or the compound of Example 157 each suspended in a vehicle (0.5% HPC) was orally administered to give a dose of 100 mg/kg. As a positive control, indomethacin (sigma) was orally administered to give a dose of 10 mg/kg. The foot edema ratio was calculated according to the formula: (volume of foot 2 hours after administration of carrageenin−volume of foot before administration)/volume of foot before administration×100, using a volume meter (TK-101, manufactured by Unicom). For the comparison between the vehicle group and the drug administered group, a variance test was performed by the F-test and thereafter, Student's t test was performed when the variance was equal, or Aspin-Welch's t test was performed when the variance was not equal.

Another data set relates to NF-κB. As to the kind of experiment: NF-κB luciferase reporter assay in A549/NF-κBLuc cells stimulated with IL-1β. Format: cell-based, human. Particulars: Homo sapiens, A549, A549/NF-κBLuc cells; compound added 1 hour before IL-1β, then 3 hours incubation; luciferase activity; read-out: NF-κB Inhibitory Activity (IC50). The essentials: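 A549 cells stably carrying an NF-κB-driven luciferase reporter (pNFκB-Luc, G418-selected) pre-treated with compound for 1 h, then stimulated with IL-1β and incubated a further 3 h. Luciferase signal used to derive IC50 for NF-κB inhibition.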
On the technique in general: In a reporter assay the amount or activity of a reporter protein is the signal.

Where [4] appears, read: liver 60 min after stimulant, real-time PCR.

`COC1=C(OC)C(=O)C(Cc2ccc(OC(C)=O)c(C(=O)Nc3ccc(C(F)(F)F)cc3)c2)=C(C)C1=O` [Example 112, N-[5-(5,6-Dimethoxy-3-methyl-1,4-benzoquinon-2-yl)methyl-2-acetoxybenzoyl]-4-trifluoromethylaniline]: in data set [1], the “TNF-α mRNA levels in liver” value is “suppressed dose dependently” and the “TNF-α levels in plasma” value is “suppressed dose dependently”. Moreover, in data set [2] (setting [4]), the “IL-1β mRNA levels in liver” value was “suppressed” and the “TNF-α mRNA levels in liver” value is “suppressed dose dependently”. In data set [2] (plasma 90 min after stimulant, ELISA), the “TNF-α levels in plasma” value is given as “suppressed dose dependently”. For the same compound, the “acute inflammation (foot edema) caused by carrageenin” value in data set [3] is reported as “significantly suppressed”. The IC50 in the data set with NF-κB turned out to be 14 µM.

Regarding `COC1=C(OC)C(=O)C(Cc2ccc(O)c(C(=O)Nc3ccncc3)c2)=C(C)C1=O` [Example 157, N-(Pyridin-4-yl)-5-(5,6-dimethoxy-3-methyl-1,4-benzoquinon-2-yl)methyl-2-hydroxybenzamide], the melting point is 171 to 172.5 °C. Moreover, in data set [1], the “TNF-α mRNA levels in liver” value is on record as “suppressed dose dependently” and the “TNF-α levels in plasma” value was “suppressed dose dependently”. Besides, the “acute inflammation (foot edema) caused by carrageenin” value in data set [3] is listed as “significantly suppressed”. Further, the IC50 in the data set with NF-κB came out at 7 mg/L.
